Experimental data published in PubChem BioAssay AID248 (DTP/NCI, 2004).
Several values for one entry are separate records, joined by “and”; a condition that tells them apart may be missing. Equal entries are not always repeated. Toxic doses and inconclusive results are not listed.

Test system: L1210 leukemia ip in BDF1 mice, survival T/C
Experiment: NCI In Vivo Anticancer Drug Screen. Data for tumor model L1210 Leukemia (intraperitoneal) in B6D2F1 (BDF1) mice
Settings: endpoint: mean survival time, higher = longer survival
Outline: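 Mice bearing the transplanted tumor received compound or vehicle. Survival of the treated group was divided by that of the vehicle-treated control group to give the ratio.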

[1] = dose: 100.0 mg/kg/injection, schedule: Q04DX003 (ip), vehicle: saline with Tween-80
[2] = dose: 200.0 mg/kg/injection, schedule: Q04DX003 (ip), vehicle: saline with Tween-80
[3] = dose: 100.0 mg/kg/injection, schedule: Q01DX009 (ip), vehicle: saline
[4] = dose: 200.0 mg/kg/injection, schedule: Q01DX009 (ip), vehicle: saline
[5] = dose: 100.0 mg/kg/injection, schedule: Q04DX002 (ip), vehicle: saline with Tween-80
[6] = dose: 200.0 mg/kg/injection, schedule: Q04DX002 (ip), vehicle: saline with Tween-80
[7] = dose: 400.0 mg/kg/injection, schedule: Q04DX002 (ip), vehicle: saline with Tween-80

For `CNC(=O)C1C(c2ccc(OC)cc2)C1c1ccc(OC)cc1` (stereo not given), the T/C (dose: 12.5 mg/kg/injection, schedule: Q04DX002 (ip), vehicle: Klucel (hydroxypropylcellulose) (HPC)) was 92 % of control, the T/C (dose: 25.0 mg/kg/injection, schedule: Q04DX002 (ip), vehicle: Klucel (hydroxypropylcellulose) (HPC)) was 92 % of control and the T/C (dose: 50.0 mg/kg/injection, schedule: Q04DX002 (ip), vehicle: Klucel (hydroxypropylcellulose) (HPC)) was 95 % of control.

With `O=[N+]([O-])Nc1cc(Cl)nc(Cl)c1` the T/C (dose: 75.0 mg/kg/injection, schedule: Q01DX001 (ip), vehicle: carboxymethylcellulose (CMC)) was 105 % of control and the T/C (dose: 150.0 mg/kg/injection, schedule: Q01DX001 (ip), vehicle: carboxymethylcellulose (CMC)) was 97 % of control.

`CC1CN=C(c2cccc(NC(=O)NCCCCNC(=O)Nc3cccc(C4=NCC(C)N4)c3)c2)N1` (stereo not given) was tested, and the T/C (dose: 6.5 mg/kg/injection, schedule: Q01DX Z (ip), vehicle: carboxymethylcellulose (CMC)) was 94 % of control.

With `C=CCN(CC=C)CCNc1nc(C(Cl)(Cl)Cl)nc2ccc(Cl)cc12` the T/C [1] was 102 % of control and the T/C [2] was 87 % of control.

With `CC(C)(C)C(C)(O)CN` (stereo not given) the T/C [3] was 95 % of control, the T/C [4] was 95 % of control and the T/C (dose: 400.0 mg/kg/injection, schedule: Q01DX009 (ip), vehicle: saline) was 95 % of control.

For `Cc1c2[n+](cc3ccccc13)C(C)CC(=O)N2` (stereo not given), the T/C (dose: 18.75 mg/kg/injection, schedule: Q01DX009 (ip), vehicle: saline) was 95 % of control, the T/C (dose: 37.5 mg/kg/injection, schedule: Q01DX009 (ip), vehicle: saline) was 95 % of control and the T/C (dose: 37.5 mg/kg/injection, schedule: Q04DX003 (ip), vehicle: saline) was 97 % of control. The T/C (dose: 75.0 mg/kg/injection, schedule: Q01DX001 (ip), vehicle: saline) was 100 % of control, the T/C (dose: 75.0 mg/kg/injection, schedule: Q01DX009 (ip), vehicle: saline) was 94 % of control and the T/C (dose: 75.0 mg/kg/injection, schedule: Q04DX003 (ip), vehicle: saline) was 101 % of control. The T/C (dose: 150.0 mg/kg/injection, schedule: Q01DX001 (ip), vehicle: saline) was 94 % of control and the T/C (dose: 150.0 mg/kg/injection, schedule: Q04DX003 (ip), vehicle: saline) was 104 % of control.

With `O=S(=O)(c1ccccc1)c1ccccc1` the T/C (dose: 100.0 mg/kg/injection, schedule: Q04DX003 (ip), vehicle: Klucel (hydroxypropylcellulose) (HPC)) was 104 % of control, the T/C [1] was 95 % of control and the T/C (dose: 200.0 mg/kg/injection, schedule: Q04DX003 (ip), vehicle: Klucel (hydroxypropylcellulose) (HPC)) was 111 % of control. For the same molecule, the T/C [2] was 103 % of control, the T/C (dose: 400.0 mg/kg/injection, schedule: Q04DX003 (ip), vehicle: Klucel (hydroxypropylcellulose) (HPC)) was 87 % of control and the T/C (dose: 400.0 mg/kg/injection, schedule: Q04DX003 (ip), vehicle: saline with Tween-80) was 89 % of control.

For `O=P(N1CC1)(N1CC1)C12CC3CC(CC(C3)C1)C2`, the T/C (dose: 25.0 mg/kg/injection, schedule: Q01DX009 (ip), vehicle: saline with Tween-80) was 170 % of control and the T/C (dose: 50.0 mg/kg/injection, schedule: Q01DX009 (ip), vehicle: saline with Tween-80) was 243 % of control.

For `O=S(=O)(Sc1ccc(Cl)cc1)c1ccc(Cl)cc1`, the T/C (dose: 100.0 mg/kg/injection, schedule: Q04DX002 (ip), vehicle: gum acacia) was 101 % of control, the T/C (dose: 200.0 mg/kg/injection, schedule: Q04DX002 (ip), vehicle: gum acacia) was 107 % of control and 91 % of control and the T/C (dose: 400.0 mg/kg/injection, schedule: Q04DX002 (ip), vehicle: gum acacia) was 104 % of control.

In the case of `Cc1cc(C)c(O)c(Br)c1`, the T/C [5] is reported as 103 % of control, the T/C [6] is reported as 96 % of control and the T/C [7] is reported as 107 % of control.

`CCOC(=O)C1C(=O)C(=O)N2CCCC12` (stereo not given) was tested, and the T/C (dose: 100.0 mg/kg/injection, schedule: Q04DX003 (ip), vehicle: saline) was 107 % of control, the T/C (dose: 200.0 mg/kg/injection, schedule: Q04DX003 (ip), vehicle: saline) was 96 % of control and the T/C (dose: 400.0 mg/kg/injection, schedule: Q04DX003 (ip), vehicle: saline) was 98 % of control.

For `O=c1[nH]cncc1CCC1OCCO1`, the T/C [3] was 98 % of control and the T/C [4] was 109 % of control.

With `O=C1C=C(O)C(=O)C=C1O` the T/C (dose: 3.0 mg/kg/injection, schedule: Q01DX009 (ip), vehicle: saline) was 111 % of control, the T/C (dose: 5.0 mg/kg/injection, schedule: Q01DX001 (ip), vehicle: saline) was 103 % of control and the T/C (dose: 6.0 mg/kg/injection, schedule: Q01DX009 (ip), vehicle: saline) was 98 % of control. For the same molecule, the T/C (dose: 10.0 mg/kg/injection, schedule: Q01DX001 (ip), vehicle: saline) was 101 % of control, the T/C (dose: 10.0 mg/kg/injection, schedule: Q01DX009 (ip), vehicle: saline with Tween-80) was 100 % of control and the T/C (dose: 12.0 mg/kg/injection, schedule: Q01DX009 (ip), vehicle: saline) was 103 % of control. The T/C (dose: 12.5 mg/kg/injection, schedule: Q04DX002 (ip), vehicle: saline) was 105 % of control and 92 % of control, the T/C (dose: 12.5 mg/kg/injection, schedule: Q04DX003 (ip), vehicle: saline) was 90 % of control and the T/C (dose: 20.0 mg/kg/injection, schedule: Q01DX001 (ip), vehicle: saline) was 98 % of control. For the same molecule, the T/C (dose: 25.0 mg/kg/injection, schedule: Q04DX002 (ip), vehicle: saline) was 94 % of control, the T/C (dose: 40.0 mg/kg/injection, schedule: Q01DX009 (ip), vehicle: saline with Tween-80) was 92 % of control and the T/C (dose: 50.0 mg/kg/injection, schedule: Q04DX002 (ip), vehicle: saline) was 108 % of control.

In the case of `OC1C/C=C/CCCCC1` (stereo not given), the T/C (dose: 100.0 mg/kg/injection, schedule: Q04DX002 (ip), vehicle: Klucel (hydroxypropylcellulose) (HPC)) is reported as 106 % of control, the T/C (dose: 200.0 mg/kg/injection, schedule: Q04DX002 (ip), vehicle: Klucel (hydroxypropylcellulose) (HPC)) is reported as 100 % of control and the T/C (dose: 400.0 mg/kg/injection, schedule: Q04DX002 (ip), vehicle: Klucel (hydroxypropylcellulose) (HPC)) is reported as 103 % of control.

For `CN1CCC(OC(=O)N(c2ccccc2)c2ccccc2)CC1`, the T/C (dose: 100.0 mg/kg/injection, schedule: Q01DX001 (ip), vehicle: saline with Tween-80) was 99 % of control and the T/C (dose: 200.0 mg/kg/injection, schedule: Q01DX001 (ip), vehicle: saline with Tween-80) was 105 % of control.

With `CCCCCCN(CCCCCC)CCC(=O)c1ccc2cc(Br)c3ccccc3c2c1` the T/C (dose: 13.3 mg/kg/injection, schedule: Q01DX Z (ip), vehicle: methylcellulose (MC)) was 92 % of control, the T/C (dose: 20.0 mg/kg/injection, schedule: Q01DX Z (ip), vehicle: methylcellulose (MC)) was 86 % of control and the T/C (dose: 30.0 mg/kg/injection, schedule: Q01DX Z (ip), vehicle: methylcellulose (MC)) was 92 % of control.

`O=C1CCC/C1=C/c1ccco1` was tested, and the T/C [5] was 105 % of control, the T/C [6] was 105 % of control and the T/C [7] was 94 % of control.

With `FC(F)(F)c1cc(CN(CCCl)CCCl)cc(C(F)(F)F)c1` the T/C (dose: 2.4 mg/kg/injection, schedule: Q01DX009 (ip), vehicle: saline) was 97 % of control, the T/C (dose: 3.6 mg/kg/injection, schedule: Q01DX009 (ip), vehicle: saline) was 98 % of control and the T/C (dose: 8.2 mg/kg/injection, schedule: Q01DX009 (ip), vehicle: saline) was 108 % of control. The T/C (dose: 42.0 mg/kg/injection, schedule: Q01DX009 (ip), vehicle: other) was 97 % of control, the T/C (dose: 42.0 mg/kg/injection, schedule: Q01DX015 (ip), vehicle: carboxymethylcellulose (CMC)) was 104 % of control and the T/C (dose: 50.0 mg/kg/injection, schedule: Q01DX001 (ip), vehicle: carboxymethylcellulose (CMC)) was 111 % of control. For the same molecule, the T/C (dose: 72.0 mg/kg/injection, schedule: Q01DX009 (ip), vehicle: other) was 98 % of control, the T/C (dose: 72.0 mg/kg/injection, schedule: Q01DX015 (ip), vehicle: carboxymethylcellulose (CMC)) was 116 % of control and the T/C (dose: 100.0 mg/kg/injection, schedule: Q01DX001 (ip), vehicle: carboxymethylcellulose (CMC)) was 108 % of control. The T/C (dose: 120.0 mg/kg/injection, schedule: Q01DX015 (ip), vehicle: carboxymethylcellulose (CMC)) was 116 % of control, the T/C (dose: 176.0 mg/kg/injection, schedule: Q01DX001 (ip), vehicle: other) was 100 % of control and the T/C (dose: 178.0 mg/kg/injection, schedule: Q01DX001 (ip), vehicle: saline) was 103 % of control. The T/C (dose: 178.0 mg/kg/injection, schedule: Q04DX003 (ip), vehicle: other) was 86 % of control, the T/C (dose: 200.0 mg/kg/injection, schedule: Q01DX001 (ip), vehicle: carboxymethylcellulose (CMC)) was 111 % of control and the T/C (dose: 264.0 mg/kg/injection, schedule: Q01DX001 (ip), vehicle: other) was 107 % of control. For the same molecule, the T/C (dose: 267.0 mg/kg/injection, schedule: Q01DX001 (ip), vehicle: saline) was 116 % of control, the T/C (dose: 400.0 mg/kg/injection, schedule: Q01DX001 (ip), vehicle: other) was 105 % of control and the T/C (dose: 400.0 mg/kg/injection, schedule: Q01DX001 (ip), vehicle: saline) was 121 % of control. For the same molecule, the T/C (dose: 600.0 mg/kg/injection, schedule: Q01DX001 (ip), vehicle: saline) was 152 % of control.
